Results taken from patent US20240358777A1, “COMPOSITIONS COMPRISING BACILLUS AMYLOLIQUEFACIENS FOR PREVENTING AND TREATING ULCERATIVE COLITIS” (Artugen Therapeutics Ltd., priority 2021, published 2024).
≈ marks a conversion by molar mass, not a printed value.

What was measured:
ART24 [1] = experiment: Additional EFSA-recommended MIC studies on ART24 lots and cell banks (Table 7); type: cell-based, Bacillus amyloliquefaciens
Protocol: The minimum inhibitory concentration (MIC) of the listed antimicrobials is expressed as μg/mL. Additional studies following EFSA testing recommendations were performed on lyophilized ART24 lots CO-33-10A2 and CO-33-12A2 and Research and Master Cell Banks CO-33-ART24 BHI and CO-33-ART24 SYD, and those results are shown in Table 7.

ART24 [2] = experiment: Antibiotic susceptibility of ART24, MIC, VetMIC Lact-1 & Lact-2 panels (Table 6); type: cell-based, Bacillus amyloliquefaciens; conditions: for MIC: Bacillus amyloliquefaciens, read-out: ART24 MIC
Protocol: The minimum inhibitory concentration (MIC) of the listed antimicrobials is expressed as μg/mL. […] From this suspension 46 μL was transferred in to 23 mL of 90% Iso-Sensitest Broth (CM0473, Oxoid) containing 10% BHI broth to end with a final inoculum concentration of 5×10^5 CFU/mL. The wells of the prefabricated 96-well plates were filled with 100 μL of the final suspension. The plates were sealed with an […], Sigma Aldrich) sealing film (to facilitate growth of the […] strains. The plates were then incubated for 24 hr at 37° C. The results are recorded after 24 hours as the lowest concentration of the antibiotic to inhibit visible growth. The prefabricated panels […], Uppsala, Sweden) comprising the antibiotics ampicillin, vancomycin, gentamicin, kanamycin, streptomycin, erythromycin, clindamycin, tetracycline, chloramphenicol, neomycin, penicillin, quinupristin-dalfopristin, linezolid, trimethoprim, ciprofloxacin and rifampicin were used.

[3] = Bacillus amyloliquefaciens, source CO-33-10A2 (lyophilized lot), read-out: MIC
[4] = Bacillus amyloliquefaciens, source CO-33-12A2 (lyophilized lot), read-out: MIC
[5] = Bacillus amyloliquefaciens, source CO-33 ART 24 BHI, read-out: MIC
[6] = Bacillus amyloliquefaciens, source CO-33 ART 024 SYD, read-out: MIC
[7] = 24 hr at 37° C., average results from N = 6
[8] = source CO-33-10A2 (lyophilized lot)
[9] = source CO-33-12A2 (lyophilized lot)

| Compound | MIC (ART24 [1]; [3]) | MIC (ART24 [1]; [4]) | MIC (ART24 [1]; [5]) | MIC (ART24 [1]; [6]) | MIC interpretation (ART24 [1]; source CO-33-10A2) | MIC interpretation (ART24 [1]; source CO-33-12A2) | MIC interpretation (ART24 [1]; source CO-33 ART 24 BHI) | MIC interpretation (ART24 [1]; source CO-33 ART 024 SYD) | MIC (ART24 [2]; [7]) | also measured |
| --- | --- | --- | --- | --- | --- | --- | --- | --- | --- | --- |
| CCC[C@@H]1C[C@@H](C(=O)N[C@@H]([C@H]2O[C@H](SC)[C@H](O)[C@@H](O)[C@H]2O)[C@H](C)Cl)N(C)C1 [Clindamycin] | 0.12 µg/mL (≈ 0.282 µM) | 0.25 µg/mL (≈ 0.588 µM) | 0.25 µg/mL (≈ 0.588 µM) | 0.25 µg/mL (≈ 0.588 µM) | (S) | (S) | (S) | (S) | 0.5 to 1 µg/mL (≈ 1.18 to 2.35 µM) | – |
| Cc1ncc([N+](=O)[O-])n1CCO [Metronidazole] | – | – | – | – | – | – | – | – | – | MIC (ART24 [1]; Bacillus amyloliquefaciens, aerobic, source CO-33-10A2, read-out: MIC): > 64 µg/mL; MIC (ART24 [1]; Bacillus amyloliquefaciens, aerobic, source CO-33-12A2, read-out: MIC): > 64 µg/mL; MIC (ART24 [1]; Bacillus amyloliquefaciens, aerobic, source CO-33 ART 24 BHI, read-out: MIC): > 64 µg/mL; MIC (ART24 [1]; Bacillus amyloliquefaciens, aerobic, source CO-33 ART 024 SYD, read-out: MIC): > 64 µg/mL; MIC (ART24 [1]; Bacillus amyloliquefaciens, anaerobic, source CO-33-10A2, read-out: MIC): 64 µg/mL (≈ 374 µM); MIC (ART24 [1]; Bacillus amyloliquefaciens, anaerobic, source CO-33-12A2, read-out: MIC): 64 µg/mL (≈ 374 µM); MIC (ART24 [1]; Bacillus amyloliquefaciens, anaerobic, source CO-33 ART 24 BHI, read-out: MIC): 64 µg/mL (≈ 374 µM); MIC (ART24 [1]; Bacillus amyloliquefaciens, anaerobic, source CO-33 ART 024 SYD, read-out: MIC): 64 µg/mL (≈ 374 µM) |
| O=C(N[C@H](CO)[C@H](O)c1ccc([N+](=O)[O-])cc1)C(Cl)Cl [Chloroamphenicol, Chloramphenicol] | 2 µg/mL (≈ 6.19 µM) | 2 µg/mL (≈ 6.19 µM) | 2 µg/mL (≈ 6.19 µM) | 2 µg/mL (≈ 6.19 µM) | (S) | (S) | (S) | (S) | 4 µg/mL (≈ 12.4 µM) | – |
| Quinupristin-dalfopristin | – | – | – | – | – | – | – | – | – | MIC (ART24 [1]; [8]): 1 µg/mL; MIC (ART24 [1]; [9]): 2 µg/mL; MIC (ART24 [1]; source CO-33 ART 24 BHI): 2 µg/mL; MIC (ART24 [1]; source CO-33 ART 024 SYD): 2 µg/mL; ART24 MIC (ART24 [2]; [7]): 4 µg/mL |
| O=C(O)c1cn(C2CC2)c2cc(N3CCNCC3)c(F)cc2c1=O [Ciprofloxacin] | ≤ 0.03 µg/mL | ≤ 0.03 µg/mL | ≤ 0.03 µg/mL | ≤ 0.03 µg/mL | (S) | (S) | (S) | (S) | ≤ 0.25 µg/mL | – |
| COc1cc(Cc2cnc(N)nc2N)cc(OC)c1OC [Trimethoprim] | ≤ 0.25 µg/mL | < 0.25 µg/mL | < 0.25 µg/mL | < 0.25 µg/mL | – | – | – | – | < 0.12 µg/mL | – |
| Gentamicin | – | – | – | – | (S) | (S) | (S) | (S) | – | MIC (ART24 [1]; [8]): ≤0.06 µg/mL; MIC (ART24 [1]; [9]): ≤0.06 µg/mL; MIC (ART24 [1]; source CO-33 ART 24 BHI): ≤0.06 µg/mL; MIC (ART24 [1]; source CO-33 ART 024 SYD): ≤0.06 µg/mL; ART24 MIC (ART24 [2]; [7]): ≤0.5 µg/mL |
| [H]/N=C(/N)N[C@H]1[C@H](O)[C@@H](O)[C@H](O[C@@H]2O[C@@H](C)[C@](O)(C=O)[C@H]2O[C@@H]2O[C@@H](CO)[C@H](O)[C@@H](O)[C@@H]2NC)[C@@H](N/C(N)=N\[H])[C@@H]1O [Streptomycin] | 1 µg/mL (≈ 1.72 µM) | 1 µg/mL (≈ 1.72 µM) | 1 µg/mL (≈ 1.72 µM) | 2 µg/mL (≈ 3.44 µM) | (S) | (S) | (S) | (S) | 4 µg/mL (≈ 6.88 µM) | – |
| CC1(C)S[C@@H]2[C@H](NC(=O)[C@H](N)c3ccccc3)C(=O)N2[C@H]1C(=O)O [Ampicillin] | ≤ 0.03 µg/mL | ≤ 0.03 µg/mL | ≤ 0.03 µg/mL | ≤ 0.03 µg/mL | (S) | (S) | (S) | (S) | 0.25 µg/mL (≈ 0.715 µM) | – |
| Penicillin | – | – | – | – | (S) | (S) | (S) | (S) | – | MIC (ART24 [1]; [8]): ≤0.03 µg/mL; MIC (ART24 [1]; [9]): ≤0.03 µg/mL; MIC (ART24 [1]; source CO-33 ART 24 BHI): ≤0.03 µg/mL; MIC (ART24 [1]; source CO-33 ART 024 SYD): 0.06 µg/mL; ART24 MIC (ART24 [2]; [7]): 0.12 to 0.5 µg/mL |
| CC(=O)NC[C@H]1CN(c2ccc(N3CCOCC3)c(F)c2)C(=O)O1 [Linezolid] | 0.25 µg/mL (≈ 0.741 µM) | 0.5 µg/mL (≈ 1.48 µM) | 0.5 µg/mL (≈ 1.48 µM) | 0.5 µg/mL (≈ 1.48 µM) | – | – | – | – | 0.5 µg/mL (≈ 1.48 µM) | – |
| CCc1c(Cl)c(O)c(Cl)c(O)c1C(=O)O[C@H]1[C@H](O)[C@H](OC)[C@H](OC/C2=C\C=C\C[C@H](O)/C(C)=C/[C@H](CC)[C@@H](O[C@@H]3OC(C)(C)[C@@H](OC(=O)C(C)C)[C@H](O)[C@@H]3O)/C(C)=C/C(C)=C/C[C@@H]([C@@H](C)O)OC2=O)O[C@@H]1C [Fidaxomicin] | 2 µg/mL (≈ 1.89 µM) | 4 µg/mL (≈ 3.78 µM) | 4 µg/mL (≈ 3.78 µM) | 4 µg/mL (≈ 3.78 µM) | – | – | – | – | – | – |
| Neomycin | – | – | – | – | – | – | – | – | – | MIC (ART24 [1]; [8]): ≤0.12 µg/mL; MIC (ART24 [1]; [9]): ≤0.12 µg/mL; MIC (ART24 [1]; source CO-33 ART 24 BHI): ≤0.12 µg/mL; MIC (ART24 [1]; source CO-33 ART 024 SYD): ≤0.12 µg/mL; ART24 MIC (ART24 [2]; [7]): ≤0.5 µg/mL |
| CN(C)[C@@H]1C(O)=C(C(N)=O)C(=O)[C@@]2(O)C(O)=C3C(=O)c4c(O)cccc4[C@@](C)(O)[C@H]3C[C@@H]12 [Tetracycline] | 2 µg/mL (≈ 4.5 µM) | 2 µg/mL (≈ 4.5 µM) | 2 µg/mL (≈ 4.5 µM) | 2 µg/mL (≈ 4.5 µM) | (S) | (S) | (S) | (S) | 4 µg/mL (≈ 9 µM) | – |
| CC[C@H]1OC(=O)[C@H](C)[C@@H](O[C@H]2C[C@@](C)(OC)[C@@H](O)[C@H](C)O2)[C@H](C)[C@@H](O[C@@H]2O[C@H](C)C[C@H](N(C)C)[C@H]2O)[C@](C)(O)C[C@@H](C)C(=O)[C@H](C)[C@@H](O)[C@]1(C)O [Erythromycin] | 0.06 µg/mL (≈ 0.0818 µM) | 0.06 µg/mL (≈ 0.0818 µM) | 0.12 µg/mL (≈ 0.164 µM) | 0.12 µg/mL (≈ 0.164 µM) | (S) | (S) | (S) | (S) | 0.12 µg/mL (≈ 0.164 µM) | – |
| CO[C@H]1/C=C/O[C@@]2(C)Oc3c(C)c(O)c4c(O)c(c(/C=N/N5CCN(C)CC5)c(O)c4c3C2=O)NC(=O)/C(C)=C\C=C\[C@H](C)[C@H](O)[C@@H](C)[C@@H](O)[C@@H](C)[C@H](OC(C)=O)[C@@H]1C [Rifampicin] | 0.25 µg/mL (≈ 0.304 µM) | 0.25 µg/mL (≈ 0.304 µM) | 0.25 µg/mL (≈ 0.304 µM) | 0.25 µg/mL (≈ 0.304 µM) | (S) | (S) | (S) | (S) | 0.5 µg/mL (≈ 0.608 µM) | – |
| NC[C@H]1O[C@H](O[C@H]2[C@H](O)[C@@H](O[C@H]3O[C@H](CO)[C@@H](O)[C@H](N)[C@H]3O)[C@H](N)C[C@@H]2N)[C@H](O)[C@@H](O)[C@@H]1O [Kanamycin] | ≤ 0.5 µg/mL | ≤ 0.5 µg/mL | ≤ 0.5 µg/mL | ≤ 0.5 µg/mL | (S) | (S) | (S) | (S) | ≤ 2 µg/mL | – |
| CN[C@H](CC(C)C)C(=O)N[C@H]1C(=O)N[C@@H](CC(N)=O)C(=O)N[C@H]2C(=O)N[C@H]3C(=O)N[C@H](C(=O)N[C@H](C(=O)O)c4cc(O)cc(O)c4-c4cc3ccc4O)[C@H](O)c3ccc(c(Cl)c3)Oc3cc2cc(c3O[C@@H]2O[C@H](CO)[C@@H](O)[C@H](O)[C@H]2O[C@H]2C[C@](C)(N)[C@H](O)[C@H](C)O2)Oc2ccc(cc2Cl)[C@H]1O [Vancomycin] | – | – | – | – | (S) | (S) | (S) | (S) | – | MIC (ART24 [1]; Bacillus amyloliquefaciens, source CO-33-10A2 (lyophilized lot)): ≤ 0.25 µg/mL; MIC (ART24 [1]; Bacillus amyloliquefaciens, source CO-33-12A2 (lyophilized lot)): ≤ 0.25 µg/mL; MIC (ART24 [1]; Bacillus amyloliquefaciens, source CO-33 ART 24 BHI): 0.5 µg/mL (≈ 0.345 µM); MIC (ART24 [1]; Bacillus amyloliquefaciens, source CO-33 ART 024 SYD): ≤ 0.25 µg/mL; MIC (ART24 [2]; 24 h): 0.5 to 1 µg/mL (≈ 0.345 to 0.69 µM) |
